Data: PubChem BioAssay (NCI)
Where “and” joins values, the source holds several entries; their conditions need not be identical. Identical values can stand only once.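 These data come from cells grown in 96-well plates and exposed to compound for 48 hours at five concentrations. At the GI50, growth is halved. TGI is the concentration that stops growth completely.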

What was measured:
Assay in all cases: NCI anticancer screen, dose series, 48 h
A549 NSCLC = system: A549 NSCLC
CAKI-1 renal = system: CAKI-1 renal
COLO 205 colon = system: COLO 205 colon
HL-60(TB) leukemia = system: HL-60(TB) leukemia
K-562 leukemia = system: K-562 leukemia
M14 melanoma = system: M14 melanoma
OVCAR-5 ovarian = system: OVCAR-5 ovarian
OVCAR-8 ovarian = system: OVCAR-8 ovarian
SK-MEL-2 melanoma = system: SK-MEL-2 melanoma
SNB-19 CNS = system: SNB-19 CNS

SMILES	GI50 (A549 NSCLC)	TGI (A549 NSCLC)	GI50 (CAKI-1 renal)	TGI (CAKI-1 renal)	GI50 (COLO 205 colon)	TGI (COLO 205 colon)	GI50 (HL-60(TB) leukemia)	TGI (HL-60(TB) leukemia)	GI50 (K-562 leukemia)	TGI (K-562 leukemia)	GI50 (M14 melanoma)	TGI (M14 melanoma)	GI50 (OVCAR-5 ovarian)	TGI (OVCAR-5 ovarian)	GI50 (OVCAR-8 ovarian)	TGI (OVCAR-8 ovarian)	GI50 (SK-MEL-2 melanoma)	TGI (SK-MEL-2 melanoma)	GI50 (SNB-19 CNS)	TGI (SNB-19 CNS)
CCCc1cc(=O)n2c(C(=O)Nc3ccc(Cl)cc3C)c(C(=O)Nc3ccc(F)cc3)sc2n1	2.63 µM	5.95 µM	7.77 µM	42.3 µM	16.9 µM	> 150 µM	1330 nM	23.8 µM	1.08 µM	20.3 µM	4.67 µM	23.7 µM	53.9 µM	> 150 µM	2.05 µM	5.14 µM	4.13 µM	21.9 µM	23.8 µM	74.2 µM
CCOC(=O)NC(=O)c1cn(C2CCCCC2)c(=O)[nH]c1=O	–	> 100 µM	–	> 100 µM	–	> 100 µM	–	> 100 µM	–	> 100 µM	–	> 100 µM	–	> 100 µM	–	> 100 µM	–	> 100 µM	–	> 100 µM
CCN(CC)CCCCCCNc1cccc2cc(Br)cnc12	8.07 µM	22.6 µM	2.83 µM	12.4 µM	1.87 µM	3.88 µM	2000 nM	4.65 µM	2.08 µM	5.59 µM	2.05 µM	3.93 µM	6.25 µM	18.9 µM	10.1 µM	23.9 µM	5.01 µM	18 µM	5.77 µM	22.6 µM
O=C(O)c1cccc(COc2ccc([N+](=O)[O-])cc2Cl)c1	> 100 µM	> 100 µM	> 100 µM	> 100 µM	> 100 µM	> 100 µM	58500 nM	> 100 µM	37.2 µM	> 100 µM	> 100 µM	> 100 µM	> 100 µM	> 100 µM	86.4 µM	> 100 µM	> 100 µM	> 100 µM	> 100 µM	> 100 µM
COc1c(C)n(CCO)ccc1=O	–	> 100 µM	–	> 100 µM	–	> 100 µM	–	> 100 µM	–	> 100 µM	–	> 100 µM	–	> 100 µM	–	> 100 µM	–	> 100 µM	–	> 100 µM
Cc1cc(Nc2nc(-c3cn(-c4ccc(Cl)cc4)nn3)nc3ccccc23)n[nH]1	11.4 µM	> 50 µM	2.31 µM	14.7 µM	38.2 µM	> 50 µM	18300 nM	> 50 µM	25.8 µM	> 50 µM	7.54 µM	> 50 µM	> 50 µM	> 50 µM	18.5 µM	> 50 µM	8.23 µM	29.8 µM	> 50 µM	> 50 µM
COC(=O)C1C(O)C(C(=O)OC)C(C)N(C)C1C (configuration not stated)	–	> 100 µM	–	> 100 µM	–	> 100 µM	–	> 100 µM	–	> 100 µM	–	> 100 µM	–	> 100 µM	–	> 100 µM	–	> 100 µM	–	> 100 µM
COc1ccc(/C(C)=C(\c2ccc(OCCN3CCCCCC3)cc2)c2ccc(OC(=O)C3CCCCC3)cc2)cc1	1.12 µM	4.04 µM	0.705 µM	2.61 µM	0.626 µM	4.06 µM	707 nM	2.85 µM	0.356 µM	6.14 µM	0.416 µM	1.3 µM	1.41 µM	3.44 µM	2.04 µM	5.9 µM	1.87 µM	4.19 µM	2.45 µM	10.5 µM
C#CCOc1cccc(Nc2ncnc3c(NC(=O)C=C)cccc23)c1	30.9 µM	> 100 µM	26.4 µM	> 100 µM	24.6 µM	73.4 µM	18900 nM	> 100 µM	7.87 µM	> 100 µM	19.4 µM	67.8 µM	27.6 µM	> 100 µM	21 µM	70.1 µM	19.8 µM	63.7 µM	39.5 µM	> 100 µM
ClC(Cl)=C1C(=C(Cl)Cl)C(Cl)(Cl)C1(Cl)Cl	–	25.7 µM	–	8.14 µM	–	10.8 µM	259 nM	0.66 µM and 2.11 µM	0.532 µM	5.62 µM	–	4.17 µM	–	6.25 µM	–	18.7 µM	–	3.32 µM	–	29 µM
Nc1c(-c2ccccc2-c2c(N)[n+]([O-])c3ccccc3[n+]2[O-])[n+]([O-])c2ccccc2[n+]1[O-]	–	> 100 µM	–	> 100 µM	–	23.6 µM	–	> 31.3 µM	–	> 71.8 µM	–	30.1 µM	–	> 100 µM	–	81.5 µM	–	> 100 µM	–	> 100 µM
CC(C)CC(C/C=C1/CC(CO)(COC(=O)C(C)(C)C)OC1=O)CC(C)C (configuration not stated)	1.07 µM and 0.515 µM	16.1 µM and 11.2 µM	7.62 µM and 1.19 µM	21.5 µM and 9.68 µM	–	0.958 µM	154 nM and 460 nM	16.9 µM and 16.7 µM	–	27.4 µM and > 37.5 µM	–	28 µM and 26.2 µM	–	24.5 µM	–	32.9 µM and 38.7 µM	–	30.3 µM and 24.3 µM	–	23.4 µM and 18.5 µM
O=C(CC(=O)C1CCOC1=O)C(=O)Nc1cccc(Cl)c1 (configuration not stated)	–	> 100 µM	–	> 100 µM	–	> 100 µM	–	> 100 µM	–	> 100 µM	–	> 100 µM	–	> 100 µM	–	> 100 µM	–	> 100 µM	–	> 100 µM
COc1cc2c(/C=N\N=C(N)N)c[nH]c2cc1C	> 100 µM	> 100 µM	37.5 µM	> 100 µM	17.3 µM	35.1 µM	15900 nM	29.4 µM	17.1 µM	30.8 µM	15.1 µM	28.3 µM	21.4 µM	64 µM	40.2 µM	> 100 µM	32.7 µM	> 100 µM	19.2 µM	54.5 µM
Nc1ccccc1O.O.O=C(O)C1[O][Sb][O]C1C(=O)O (configuration not stated)	54.7 µM	> 100 µM	3.78 µM	12.3 µM	18.7 µM	35.3 µM	1860 nM	10.6 µM	3.77 µM	> 36.1 µM	11.5 µM	25.9 µM	18.4 µM	38.5 µM	14.9 µM	32.9 µM	15 µM	32.1 µM	55.5 µM	> 100 µM
O=C(/C=C/c1ccccc1)c1ccccc1	–	> 10 µM	–	> 10 µM	–	> 10 µM	–	> 10 µM	–	> 7.51 µM	–	> 10 µM	–	> 10 µM	–	> 10 µM	–	> 10 µM	–	> 10 µM
O=C1Nc2ccccc2/C1=C1\CCc2cc(O)ccc21	9.45 µM	> 25 µM	7.12 µM	> 25 µM	12.4 µM	> 25 µM	6650 nM	> 21.5 µM	9.09 µM	> 25 µM	7.18 µM	> 25 µM	16.1 µM	> 25 µM	10.4 µM	> 25 µM	9.99 µM	> 25 µM	13.2 µM	> 25 µM
Cn1c(=O)nc2n(-c3cc(C(F)(F)F)cc(C(F)(F)F)c3)c3ccccc3nc-2c1=O	–	> 100 µM	–	> 100 µM	–	> 100 µM	–	> 100 µM	–	> 100 µM	–	> 100 µM	–	> 100 µM	–	> 100 µM	–	> 100 µM	–	> 100 µM
COC(=O)C(=O)C(C(C)=O)C(=O)NCc1ccc(OC)c(OC)c1 (configuration not stated)	–	> 100 µM	–	> 100 µM	–	> 100 µM	–	> 100 µM	–	> 100 µM	–	> 100 µM	–	> 100 µM	–	> 100 µM	–	> 100 µM	–	> 100 µM
O=C(NCc1ccc(Cn2c(=O)sn(-c3ccccc3)c2=O)cc1)OCc1ccc2cccc(O)c2n1	1.51 µM	3.87 µM	0.479 µM	1.84 µM	0.608 µM	2.29 µM	1240 nM	> 20.5 µM	0.403 µM	> 100 µM	0.647 µM	2.03 µM	1.54 µM	3.12 µM	0.957 µM	3 µM	1.46 µM	3 µM	1.49 µM	2.84 µM
NNCCc1ccc(NC(=O)CCCc2ccc(C(=O)Nc3ccccc3N)cc2)cc1	31.9 µM	> 100 µM	7.99 µM	> 100 µM	8.48 µM	40.7 µM	3340 nM	25 µM	3.58 µM	> 100 µM	15.2 µM	> 100 µM	8.15 µM	> 100 µM	8.52 µM	> 100 µM	7.49 µM	> 100 µM	63.1 µM	> 100 µM
CCCC/C(=C\C1=C(C)C(=O)C(OC)=C(OC)C1=O)C(=O)O	> 100 µM	> 100 µM	> 100 µM	> 100 µM	> 100 µM	> 100 µM	66300 nM	> 100 µM	50.1 µM	> 100 µM	> 100 µM	> 100 µM	> 100 µM	> 100 µM	> 100 µM	> 100 µM	> 100 µM	> 100 µM	> 100 µM	> 100 µM
O=c1[nH]cnc(NC2C=C(CO)C(O)C2O)c1[N+](=O)[O-] (configuration not stated)	–	> 100 µM	–	> 100 µM	–	> 100 µM	–	> 51.7 µM	–	> 100 µM	–	> 100 µM	–	> 100 µM	–	> 100 µM	–	> 100 µM	–	> 100 µM
CC(C)(C)c1ccc2c(c1)S(=O)(=O)Nc1ccc(Cl)cc1NS(=O)(=O)c1cc(C(C)(C)C)ccc1OCCOCCOCCO2	–	> 100 µM	–	> 100 µM	–	> 100 µM	–	> 100 µM	–	> 100 µM	–	> 100 µM	–	> 100 µM	–	> 100 µM	–	> 100 µM	–	> 100 µM
Cc1cccc(C2=C/C(=C(\SS/C(C(=O)c3ccc(OCC(=O)O)c(Cl)c3Cl)=C3\C=C(c4cccc(C)c4)SS3)C(=O)c3ccc(OCC(=O)O)c(Cl)c3Cl)SS2)c1	–	> 100 µM	–	66.3 µM	–	38.3 µM	–	4.71 µM	–	36.2 µM	–	51.3 µM	–	> 86.2 µM	–	> 73.6 µM	–	39.8 µM	–	43.7 µM
CCC1CN2CCc3cc(OC)c(OC)cc3C2CC1CC1c2cc(OC)c(OC)cc2CCN1C(=O)C1CCCN1 (configuration not stated)	–	78.1 µM	–	> 100 µM	–	25.7 µM	–	43.9 µM	–	51.4 µM	–	27.6 µM	–	> 100 µM	–	> 100 µM	–	68.7 µM	–	> 100 µM
COc1cccc(/C=N/[N-]C(=O)c2ccncc2)c1[O-].COc1cccc(/C=N/[N-]C(=O)c2ccncc2)c1[O-].[O]=[U](=[O])([OH2+])[OH2+]	27.9 µM	> 100 µM	3.91 µM	22.1 µM	4.09 µM	> 100 µM	2430 nM	> 100 µM	5.29 µM	> 100 µM	5.47 µM	> 61.4 µM	6.79 µM	> 100 µM	5.11 µM	> 100 µM	19.8 µM	> 74 µM	9.44 µM	> 100 µM
CN(C)C(=S)SSC(=S)N(C)C	17.2 µM and 3.51 µM and 19.7 µM	45.9 µM and > 100 µM and 48.1 µM	15.9 µM and 61.5 µM and 21.1 µM	31.4 µM and > 100 µM and 40.1 µM	–	29.3 µM	–	70.6 µM and 9.41 µM and 10.8 µM	–	> 100 µM and 16.5 µM	14.4 µM	30 µM and > 61.7 µM and > 51.3 µM	14.9 µM and > 58.4 µM and 16.6 µM	28.2 µM and > 72.6 µM and 33.5 µM	15.8 µM and 5.61 µM and 16.4 µM	30.5 µM and 65.8 µM and 36.1 µM	34.2 µM and 57 µM and 17 µM	> 100 µM and 39.4 µM	25.4 µM	> 100 µM
CCC/C=C/C=C/C1CC(O)C(O)C(=O)C1CO (configuration not stated)	–	> 100 µM	–	> 100 µM	–	> 100 µM	–	> 100 µM	–	> 100 µM	–	> 100 µM	–	> 100 µM	–	> 100 µM	–	> 100 µM	–	> 100 µM
N[C@H](CCC(=O)N[C@@H](Cc1c[nH]c2ccccc12)C(=O)O)C(=O)O	> 100 µM	> 100 µM	> 100 µM	> 100 µM	> 100 µM	> 100 µM	> 100000 nM	> 100 µM	> 100 µM	> 100 µM	> 100 µM	> 100 µM	> 100 µM	> 100 µM	> 100 µM	> 100 µM	> 100 µM	> 100 µM	> 100 µM	> 100 µM
